Columns and labels:
[1] = system: variegating white reporter transgene flies (C3/2L, BL2/Y); assay: P9 fed to flies with variegating white reporter transgene; assay type: in vivo, Drosophila melanogaster; conditions: transgene at the basis of chromosome 2L; data not shown
Excerpt: Although we favor the possibility that P9 and MATH20 reduce the spreading of heterochromatin toward w^m4 through long-range effects, we cannot completely rule out the possibility that a local binding site near the white gene (a local SAR) is involved. We attempted to address this issue by studying the effect of P9 on two different variegating miniwhite reporter genes called C3/2L and BL2/Y (Lu et al., 1996; Wallrath and Elgin, 1995). […] Nevertheless, we consider a local-acting mode less likely; the enormous target size of satellite III, 11 Mb versus 0.5 kb for a typical SAR, favors a long-range spreading model.

[2] = system: homozygous bw^D/bw^D flies; assay: P31 fed to developing homozygous brown-dominant flies; assay type: in vivo
Protocol: These experiments established a remarkable molecular interplay between the GAGAA insert of the bw^D allele and its target-compound P31.
Drug treatments of the bw^D flies were performed as for w^m4 flies except that 30 parental females were allowed to lay eggs. To obtain the heterozygous bw^D/+; st/st progeny, 30 virgin bw^D/bw^D; st/st homozygous females were mated with scarlet homozygous males for about 5 days before transferring them to experimental vials for egg laying.
(§1) The lethality of the progenies was calculated by counting the dead bodies and the total empty pupal shells. The A6 to A5 transformation was detected by bristles that form on abdominal segment A6 on males. All male adult flies obtained (˜50) were scored. Sex combs and halteres were individually inspected and photographed under the microscope (Axiophot, Zeiss) after dissecting at least 30 individuals and incubating them into 30 μl of 0.6 g/ml gum arabic; 4 g/ml chlorohydrate; 35% glycerol under a 24×24 mm coverslip as described (Ashburner, 1989). Since raising double heterozygous flies (Ubx^1/+; bw^D/+) led to lethality, we morphologically dissected eight late stage pupae after carefully removing the pupal envelope.

[3] = system: Ubx^1/+ flies; assay: P31 fed to developing Ubx^1/+ flies; assay type: in vivo, Drosophila melanogaster
Excerpt: (§2) P31 enhances haltere-to-wing transformation in heterozygous bw^D/bw; Ubx^1/+ flies: The GAGA factor is know to bind to the promoter of Ubx and to stimulate its transcription in vitro (Biggin and Tjian, 1988) The Trl locus also genetically interacts with Ubx, since Trl^13C dominantly enhances the segmental transformation observed in Ubx heterozygotes. […] We asked, does P31 also chemically mimic the genetic interaction of Ubx and Trl^13C? To address this issue, we fed P31 to two genotypes, +/+; Ubx/+ and bw^D/bw^D; Ubx^1/+. The latter genotype was obtained by crossing bw^D/bw^D; st/st females and bw^D/bw^D Ubx^1/Tm3, sb males.
as §1

[4] = system: bw^D/bw^D; Ubx^1/+ flies; assay: P31 fed to developing Ubx^1/+; bw^D flies; assay type: in vivo, Drosophila melanogaster
Excerpt: as §2
The progeny of these two genotypes raised in the presence of P31 were scored both for the A6 to A5 and the haltere-to-wing transformations as well as for the sex comb reduced phenotypes (Table 3). […] However, eight of them (out of approximately 100) reached a late pupae stage and thus could be dissected to inspect their morphology. […] This transformation was manifested by an enlarged size and gray color of the halteres, and also by the appearance of numerous bristles at the base of the halteres that are characteristic of the anterior wing margin. […] We conclude that the chemical mimicry by P31 in a bw^D genetic backgrounds extends to the genetic interaction of Trl^13C with Ubx.
as §1

[5] = fly stock of r12, bw^D/bw^+, homozygous per text

SMILES: CN(C)CCCNC(=O)CCNC(=O)c1cc(NC(=O)c2cc(NC(=O)c3cc(NC(=O)CCNC(=O)c4cc(NC(=O)c5cc(NC(=O)c6cccn6C)cn5C)cn4C)cn3C)cn2C)cn1C [Compound P9, PyPyPy-β-PyPyPy-β-Dp]
- suppression of PEV of a variegating white reporter transgene [1]: did not suppress PEV

SMILES: CN(C)CCCNC(=O)CCNC(=O)c1nc(NC(=O)CCNC(=O)c2nc(NC(=O)CCNC(=O)c3cc(NC(=O)c4nc(NC(=O)CCNC(=O)c5nccn5C)cn4C)cn3C)cn2C)cn1C [Compound P31, Im-β-Im-Py-β-Im-β-Im-β-Dp]
- A6 to A5 [2, 5]: 100%
- Lethality [2, 5]: 66%
- Sex comb, range of teeth [2, 5]: 6-9
- Sex comb (mean) ([2]; fly stock of r12, bw^D/bw^+, text: homozygous): 7.2
- A6 to A5, number of bristles on A6 ([2]; fly stock of r12, bw^D/bw^+, text: homozygous bw^D males): 3-10
- sex comb teeth, number mostly found ([2]; homozygous bw^D): 6
- progeny that died at the pupal stage ([2]; homozygous bw^D flies): about two thirds
- Pupae delay (hrs) ([2]; in vivo): ≥ 65 hrs-∞
- delay of hatching ([2]; in vivo): 65 to 75 h
- A6 to A5 ([3]; fly stock Ubx^1/+): 0%
- Lethality ([3]; fly stock Ubx^1/+): 10%
- Sex comb (mean) ([3]; fly stock Ubx^1/+): 10.3
- Sex comb, range of teeth ([3]; fly stock Ubx^1/+): 8-12
- alteration of phenotype (in words) ([3]; progeny of Ubx^1/+ flies): no altered phenotype
- pupae with clear signs of haltere-to-wing transformation ([4]; bw^D/bw^D, Ubx^1/+, dissected late pupae): five of eight
- A6 to A5 ([4]; fly stock Ubx^1/+, bw^D): 100%
- Lethality ([4]; fly stock Ubx^1/+, bw^D): 100%
- Sex comb (mean) ([4]; fly stock Ubx^1/+, bw^D): 7.4
- Sex comb, range of teeth ([4]; fly stock Ubx^1/+, bw^D): 5-9
- A6 to A5, number of bristles on A6 ([4]; fly stock Ubx^1/+, bw^D, dissected late pupae): 2-6
- effect on development (in words) ([4]; in vivo): blocked their development completely

Reference: patent US20030157715A1, “Modulation of chromosome function by chromatin remodeling agents” (priority 2000, published 2003)
